Data as given in US9096594B2, “Kinase inhibitors and methods of use thereof” (priority 2012, dated 2015).
Like-named read-outs stand apart in the source and are kept apart here.

Assays:
[1] = target: CDK5/p25 (Homo sapiens (Human), UniProt Q00535)
Protocol: Biochemical characterization of these synthesized compounds were assayed against GSK3β and CDK5/p25, with CDK5/p25 serving as a counter target of GSK3β selectivity. […] The effects of these compounds on survival of SH-SY5Y pathophysiology cells were also monitored.

[2] = target: T1, GSK3β (Homo sapiens (Human), UniProt P49841); test: biochemical
Protocol: Human GSK3β as a GST fusion expressed in baculoviral system was purchased from BPS Bioscience (San Diego, Calif.). […] Reactions were incubated at room temperature for 60 minutes. 2.5 μL/well of ADP-Glo (Promega, V9103) was added with BioRAPTR, and incubated at room temperature for 40 minutes followed by addition of 5 μL/well of ADP-Glo detection reagent (Promega, V9103) with Combi nL (Thermo, Waltham, Mass.) and incubation at room temperature for 30 minutes. The plates were read on a ViewLux (PerkinElmer, Waltham, Mass.) for luminescence. Data were scaled using the positive and neutral controls and fitted for IC50 as described below.
100 mL/well compounds were pinned. […] Incubated at room temperature for 60 minutes. Added 20 μL/well of ADP-glo (Promega, V9103) with Combi, and incubated at room temperature for 40 minutes. Added 40 μL/well of ADP-glo (Promega, V9103) with Combi, incubated at room temperature for 30 minutes. Read on Envision for luminescence.

[3] = target: T1, GSK3β
Protocol: GSK3β Microfluidic Mobility-Shift Assay
(§1) Reactions were terminated by the addition of 10 mM EDTA. Substrate and product were separated electrophoretically and fluorescence intensity of the substrate and product was determined by Labchip EZ Reader II (Caliper Life Sciences, MA). The kinase activity was measured as percent conversion. The reactions were performed in duplicate for each sample. […] The results were analyzed by Genedata Assay Analyzer. The percent inhibition was plotted against the compound concentration and the IC50 value was determined from the logistic dose-response curve fitting.

[4] = target: T2, GSK3α (Homo sapiens (Human), UniProt P49840)
Protocol: GSK3β Microfluidic Mobility-Shift Assay
as §1

[5] = target: CK1δ (Homo sapiens (Human), UniProt P48730); test: biochemical
Description: Approximately 20,000 Response Units (RU) of anti GST-antibody (GE Healthcare Life Sciences) were immobilized on Flow Cell (FC) 1 and FC2 of a new, freshly conditioned CM5 Sensor Chip (GE Healthcare Life Sciences) in a Biacore T100 instrument utilizing the immobilization wizard of the T100 software package. Approximately 1,500 RU of recombinant GST (GE Healthcare Life Sciences) was then captured on FC1 utilizing the capture wizard protocol of the T100 software package. FC1 is used as a reference subtraction point for this and all SPR assays. Approximately 2,700 RU of recombinant GST-CK1δ was then captured on FC2 utilizing the capture wizard protocol of the T100 software package. FC2 is used as the active flowcell for this and all SPR assays. The analyte plate is generated in dose response fashion in TBS buffer containing a final concentration of 2% DMSO, with a final analyte concentration of 10 μM, 100 nM and 10 nM. A zero value is determined by running injections of buffer containing only 2% DMSO and no analyte. All injections are run in duplicate and are reference subtracted from FC1. A method consisting of a 60 second contact time and 60 second wash time with a flow rate of 30 μL/min was employed. […] Analysis of compounds was done using the 1:1 binding model and affinity measurements in the Biacore T100 evaluation software package.
Conditioning new chip: PBS immobilization buffer was loaded into buffer shelf and insert buffer line A. Unused CM5 sensor chip was loaded into instrument per user manual. Chip was primed with 6 minutes of buffer injection at 30 μL/min.
Primed chip again as described above. Generated anti GST antibody solution by mixing 4.5 μL anti GST antibody (GE Healthcare Life Sciences, GST Capture Kit) with 95.5 μL immobilization buffer (GE Healthcare Life Sciences, GST Capture Kit). Put solution into 700 μL small vial and cap. Repeated. Placed both vials in reagent rack 1 of Biacore T100 instrument and insert into machine per user manual. Initiated immobilization of anti GST antibody by utilizing the immobilization Wizard protocol of Biacore T100 software. Immobilized approximately 20,000 Response Units (RU) of anti GST antibody on FC1 and FC2. […] Inserted buffer line A. Repeated prime procedure. Generated GST protein solution by mixing 2 μL of recombinant GST (GE Healthcare Life Sciences, GST Capture Kit) with 98 μL TBS 2% DMSO buffer. Generated GST-CK1δ protein solution by mixing 5 μL of recombinant GST-CK1δ with 95 μL TBS 2% DMSO running buffer. Placed GST protein solution in position B1 on reagent rack 1. Placed GST-CK1δ protein solution in position Cl on reagent rack 1. Initiated a manual injection run and inject for 30 seconds at 5 μL/min GST protein solution on FC1 to generate reference flow cell. […] Captured approximately 1500 RU GST protein on FC1. Captured approximately 2700 RU GST-CK1δ protein on FC2.
An analyte plate was generated for the assay. Using a standard deep volume 384 well plate, placed 100 μL of a 10 μM analyte in TBS 2% DMSO solution wells A1 and A2. Placed 100 μL of a 50 nM analyte in TBS 2% DMSO solution in wells A3 and A4. Placed 100 μL of a 10 nM analyte in TBS 2% DMSO solution in wells A5 and A6. Placed 100 μL of TBS 2% DMSO running buffer in wells A7 and A8. Repeated steps for subsequent analytes. Placed analyte plate in Biacore T100 per user manual.

[6] = target: T2, GSK3α; test: biochemical
Protocol: GSK3β Microfluidic Mobility-Shift Assay
as §1

[7] = target: T1, GSK3β; test: biochemical; remark: listed apart in the source
Protocol: GSK3β Microfluidic Mobility-Shift Assay
as §1

[8] = target: T1, GSK3β; test: biochemical; remark: listed apart in the source
[9] = physchem; settings: phosphate buffered saline (PBS), pH 7.4, aqueous buffer, thermodynamic from solid
[10] = mouse microsomes, remaining after 1 hour
[11] = mouse plasma, 5 hours
Protocol: Plasma stability was determined at 37° C. at 5 hours in both human and mouse plasma. […] Compounds were incubated at 37° C. for 5 hours with a 250 rpm orbital shake with time points taken at 0 and 5 hours.

T2 sequence (P49840 whole entry): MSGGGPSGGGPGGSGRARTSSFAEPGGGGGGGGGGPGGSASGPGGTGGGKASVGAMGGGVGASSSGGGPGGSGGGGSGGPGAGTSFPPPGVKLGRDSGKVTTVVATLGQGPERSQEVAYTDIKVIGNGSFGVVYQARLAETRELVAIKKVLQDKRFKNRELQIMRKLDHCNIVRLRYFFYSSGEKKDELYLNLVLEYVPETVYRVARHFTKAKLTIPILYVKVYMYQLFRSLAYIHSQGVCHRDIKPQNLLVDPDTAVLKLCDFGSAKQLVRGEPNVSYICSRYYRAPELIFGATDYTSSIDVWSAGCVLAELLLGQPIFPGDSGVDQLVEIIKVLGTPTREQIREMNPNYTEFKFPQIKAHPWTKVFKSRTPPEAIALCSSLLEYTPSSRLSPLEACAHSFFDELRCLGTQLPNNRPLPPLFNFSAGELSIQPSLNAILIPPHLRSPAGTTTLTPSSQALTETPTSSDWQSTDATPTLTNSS
T1 sequence (P49841 whole entry): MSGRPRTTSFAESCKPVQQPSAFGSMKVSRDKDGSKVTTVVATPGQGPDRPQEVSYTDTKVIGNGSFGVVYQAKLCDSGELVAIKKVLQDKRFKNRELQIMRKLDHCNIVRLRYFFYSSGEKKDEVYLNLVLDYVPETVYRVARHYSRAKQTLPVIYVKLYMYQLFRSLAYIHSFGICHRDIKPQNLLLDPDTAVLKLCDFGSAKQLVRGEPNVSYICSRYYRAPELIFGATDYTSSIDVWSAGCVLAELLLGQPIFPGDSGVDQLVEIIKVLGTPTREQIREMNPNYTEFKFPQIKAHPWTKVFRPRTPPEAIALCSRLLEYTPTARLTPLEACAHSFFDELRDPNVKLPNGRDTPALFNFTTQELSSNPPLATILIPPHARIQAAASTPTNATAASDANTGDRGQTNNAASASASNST
Sequence of CDK5/p25 (Q00535 whole entry, species assumed): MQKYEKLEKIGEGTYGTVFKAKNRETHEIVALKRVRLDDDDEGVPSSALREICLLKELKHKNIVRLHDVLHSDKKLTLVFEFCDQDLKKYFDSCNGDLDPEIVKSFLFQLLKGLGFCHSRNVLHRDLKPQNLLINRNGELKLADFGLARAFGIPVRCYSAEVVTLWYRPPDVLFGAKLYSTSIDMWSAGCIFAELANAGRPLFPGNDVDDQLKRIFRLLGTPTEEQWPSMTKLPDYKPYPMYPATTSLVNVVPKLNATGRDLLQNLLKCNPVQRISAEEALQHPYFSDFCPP
Sequence of CDK5/p25 (Q15078 99-307 partner, species assumed): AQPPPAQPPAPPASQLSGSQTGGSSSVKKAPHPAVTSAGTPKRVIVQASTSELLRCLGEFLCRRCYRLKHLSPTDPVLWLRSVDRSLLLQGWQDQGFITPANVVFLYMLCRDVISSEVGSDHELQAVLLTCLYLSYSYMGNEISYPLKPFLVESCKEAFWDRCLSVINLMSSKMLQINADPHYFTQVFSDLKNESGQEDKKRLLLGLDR
Sequence of CK1δ (P48730 whole entry): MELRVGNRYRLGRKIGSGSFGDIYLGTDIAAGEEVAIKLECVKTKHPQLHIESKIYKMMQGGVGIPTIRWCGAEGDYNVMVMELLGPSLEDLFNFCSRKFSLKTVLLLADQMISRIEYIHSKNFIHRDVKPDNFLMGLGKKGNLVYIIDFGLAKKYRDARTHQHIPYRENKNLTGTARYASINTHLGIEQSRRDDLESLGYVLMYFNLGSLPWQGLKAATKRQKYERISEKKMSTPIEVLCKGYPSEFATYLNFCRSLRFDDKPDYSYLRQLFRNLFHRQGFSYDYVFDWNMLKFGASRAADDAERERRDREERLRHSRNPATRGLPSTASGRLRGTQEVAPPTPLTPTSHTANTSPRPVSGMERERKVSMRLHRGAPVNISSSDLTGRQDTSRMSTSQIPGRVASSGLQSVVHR

Structure (SMILES) | ADP Glo Assay GSK3β vs CDK5 fold selectivity [1] | IC50 [2] | IC50 [3] | IC50 [4] | Kd [5] | IC50 [6] | IC50 [7] | Kd [8] | further results
Cc1[nH]nc2c1[C@@H](c1ccccc1C#N)C1=C(CC(C)(C)CC1=O)N2 [Compound 32, 2-(3,7,7-trimethyl-5-oxo-4,5,6,7,8,9-hexahydro-2H-pyrazolo[3,4-b]quinolin-4-yl)benzonitrile] | 30X | 0.101 to 1 µM | < 0.1 µM | < 0.1 µM | – | – | – | – | –
Cc1[nH]nc2c1C(c1ccc(Cl)cc1)C1=C(CC(C)(C)CC1=O)N2 (centres unmarked) [Compound 15, 4-(4-chlorophenyl)-3,7,7-trimethyl-6,7,8,9-tetrahydro-1H-pyrazolo[3,4-b]quinolin-5(4H)-one] | – | 1 to 5 µM | – | – | 1 to 5 µM | 0.101 to 1 µM | 1 to 5 µM | 1 to 5 µM | –
Cc1[nH]nc2c1C(c1ccn[nH]1)C1=C(CC(C)(C)CC1=O)N2 (centres unmarked) [Compound 40, 3,7,7-trimethyl-4-(1H-pyrazol-5-yl)-6,7,8,9-tetrahydro-1H-pyrazolo[3,4-b]quinolin-5(4H)-one] | – | 1 to 5 µM | – | – | 5 to 30 µM | 0.101 to 1 µM | 0.101 to 1 µM | 5 to 30 µM | –
Cc1[nH]nc2c1C(c1cccnc1)C1=C(CC(C)(C)CC1=O)N2 (centres unmarked) [Compound 37, 3,7,7-trimethyl-4-(pyridin-3-yl)-6,7,8,9-tetrahydro-1H-pyrazolo[3,4-b]quinolin-5(4H)-one] | – | 0.101 to 1 µM | – | – | 1 to 5 µM | 0.101 to 1 µM | 0.101 to 1 µM | 0.101 to 1 µM | –
Cc1[nH]nc2c1C(c1ccccn1)C1=C(CC(C)(C)CC1=O)N2 (centres unmarked) [Compound 36, 3,7,7-trimethyl-4-(pyridin-2-yl)-6,7,8,9-tetrahydro-1H-pyrazolo[3,4-b]quinolin-5(4H)-one] | – | 0.101 to 1 µM | – | – | 5 to 30 µM | 1 to 5 µM | 0.101 to 1 µM | 0.101 to 1 µM | –
Cc1[nH]nc2c1C(c1ccc3c(c1)OCO3)C1=C(CC(C)(C)CC1=O)N2 (centres unmarked) [Compound 26, 4-(benzo[d][1,3]dioxol-5-yl)-3,7,7-trimethyl-6,7,8,9-tetrahydro-1H-pyrazolo[3,4-b]quinolin-5(4H)-one] | – | 1 to 5 µM | – | – | 0.101 to 1 µM | 0.101 to 1 µM | 1 to 5 µM | 1 to 5 µM | –
Cc1[nH]nc2c1C(c1ccsc1)C1=C(CC(C)(C)CC1=O)N2 (centres unmarked) [Compound 8, 3,7,7-trimethyl-4-(thiophen-3-yl)-6,7,8,9-tetrahydro-1H-pyrazolo[3,4-b]quinolin-5(4H)-one] | – | 1 to 5 µM | – | – | 0.101 to 1 µM | 0.101 to 1 µM | 0.101 to 1 µM | 0.101 to 1 µM | –
Cc1[nH]nc2c1C(c1ccc(Br)cn1)C1=C(CC(C)(C)CC1=O)N2 (centres unmarked) [Compound 39, 4-(5-bromopyridin-2-yl)-3,7,7-trimethyl-6,7,8,9-tetrahydro-1H-pyrazolo[3,4-b]quinolin-5(4H)-one] | – | 1 to 5 µM | – | – | 5 to 30 µM | 1 to 5 µM | 1 to 5 µM | 5 to 30 µM | –
Cc1[nH]nc2c1C(c1cccc(Cl)c1)C1=C(CC(C)(C)CC1=O)N2 (centres unmarked) [Compound 14, 4-(3-chlorophenyl)-3,7,7-trimethyl-6,7,8,9-tetrahydro-1H-pyrazolo[3,4-b]quinolin-5(4H)-one] | – | 0.101 to 1 µM | – | < 0.1 µM | 0.101 to 1 µM | – | 0.101 to 1 µM | 0.101 to 1 µM | –
Cc1[nH]nc2c1C(c1cccc3nonc13)C1=C(CC(C)(C)CC1=O)N2 (centres unmarked) [Compound 41] | 51X | – | < 0.1 µM | – | – | – | – | – | –
Cc1[nH]nc2c1C(c1cccc(C#N)c1)C1=C(CC(C)(C)CC1=O)N2 (centres unmarked) [Compound 33, 3-(3,7,7-trimethyl-5-oxo-4,5,6,7,8,9-hexahydro-2H-pyrazolo[3,4-b]quinolin-4-yl)benzonitrile] | 131X | < 0.1 µM | < 0.1 µM | < 0.1 µM | – | – | – | – | –
COc1cccc(C2C3=C(CC(C)(C)CC3=O)Nc3n[nH]c(C)c32)c1 (centres unmarked) [Compound 23, 4-(3-methoxyphenyl)-3,7,7-trimethyl-6,7,8,9-tetrahydro-1H-pyrazolo[3,4-b]quinolin-5(4H)-one] | – | 0.101 to 1 µM | – | – | 1 to 5 µM | 0.101 to 1 µM | 0.101 to 1 µM | 5 to 30 µM | –
CC1(C)CC(=O)C2=C(C1)Nc1n[nH]c(C(F)(F)F)c1C2(C)c1ccccc1 (racemic) [Compound 68, 4,7,7-trimethyl-4-phenyl-3-(trifluoromethyl)-6,7,8,9-tetrahydro-2H-pyrazolo[3,4-b]quinolin-5(4H)-one] | 244X | < 0.1 µM | < 0.1 µM | < 0.1 µM | – | – | – | – | –
Cc1[nH]nc2c1C(c1ccc(Cl)s1)C1=C(CC(C)(C)CC1=O)N2 (centres unmarked) [Compound 9, 4-(5-chlorothiophen-2-yl)-3,7,7-trimethyl-6,7,8,9-tetrahydro-1H-pyrazolo[3,4-b]quinolin-5(4H)-one] | – | 1 to 5 µM | – | – | 1 to 5 µM | 0.101 to 1 µM | 0.101 to 1 µM | 0.101 to 1 µM | –
CCc1[nH]nc2c1C(c1ccccc1OC)C1=C(CC(C)(C)CC1=O)N2 (centres unmarked) [Compound 48] | 35X | – | < 0.1 µM | – | – | – | – | – | –
Cc1[nH]nc2c1C(c1cccs1)C1=C(CC(C)(C)CC1=O)N2 (racemic) [Compound 5, 3,7,7-trimethyl-4-(thiophen-2-yl)-6,7,8,9-tetrahydro-1H-pyrazolo[3,4-b]quinolin-5(4H)-one] | – | 0.101 to 1 µM | – | – | 0.101 to 1 µM | 0.101 to 1 µM | 0.101 to 1 µM | 0.101 to 1 µM | –
COc1ccccc1C1C2=C(CC(C)(C)CC2=O)Nc2n[nH]c(C(C)C)c21 (centres unmarked) [Compound 49] | 14X | – | < 0.1 µM | – | – | – | – | – | –
COc1ccc(C2C3=C(CC(C)(C)CC3=O)Nc3n[nH]c(C)c32)cc1 (centres unmarked) [Compound 24, 4-(4-methoxyphenyl)-3,7,7-trimethyl-6,7,8,9-tetrahydro-1H-pyrazolo[3,4-b]quinolin-5(4H)-one] | – | 5 to 30 µM | – | – | 1 to 5 µM | 5 to 30 µM | 1 to 5 µM | 1 to 5 µM | –
Cc1[nH]nc2c1C(c1ccccc1Br)C1=C(CC(C)(C)CC1=O)N2 (centres unmarked) [Compound 16] | 14X | – | < 0.1 µM | < 0.1 µM | – | – | – | – | –
CC1(C)CC(=O)C2=C(C1)Nc1n[nH]cc1[C@]2(C)c1ccccc1 (stereo in doubt) [Compound 108] | – | – | – | – | – | – | – | – | solubility at 24 h [9]: > 500 µM; Microsomal stability 60 min [10]: 108.2%; Plasma stability % remaining (in mice) [11]: 96.6%
CC1(C)CC(=O)C2=C(C1)Nc1n[nH]c(C(F)(F)F)c1[C@@H]2c1ccccc1C(F)(F)F (racemic) [Compound 72, 7,7-dimethyl-3-(trifluoromethyl)-4-(2-(trifluoromethyl)phenyl)-6,7,8,9-tetrahydro-2H-pyrazolo[3,4-b]quinolin-5(4H)-one] | – | – | – | < 0.1 µM | – | – | < 0.1 µM | – | –
COC(=O)c1[nH]nc2c1C(C)(c1ccccc1)C1=C(CC(C)(C)CC1=O)N2 (centres unmarked) [Compound 104] | – | – | – | < 0.1 µM | – | – | < 0.1 µM | – | –

More lines, main results first:

ADP Glo Assay GSK3β vs CDK5 fold selectivity [1] | IC50 [2] | IC50 [3] | IC50 [4] | Kd [5] | IC50 [6] | IC50 [7] | Kd [8] | Structure (SMILES) | further results
124X | < 0.1 µM | < 0.1 µM | < 0.1 µM | – | – | – | – | CSc1ccccc1C1C2=C(CC(C)(C)CC2=O)Nc2n[nH]c(C)c21 (centres unmarked) [Compound 25, 3,7,7-trimethyl-4-(2-(methylthio)phenyl)-6,7,8,9-tetrahydro-2H-pyrazolo[3,4-b]quinolin-5(4H)-one] | –
615X | – | < 0.1 µM | – | – | – | – | – | CC1(C)CC(=O)C2=C(C1)Nc1n[nH]c(C(F)(F)F)c1C2c1ccccc1 (centres unmarked) [Compound 52] | –
162X | – | < 0.1 µM | – | – | – | – | – | CC1(C)CC(=O)C2=C(C1)Nc1n[nH]c(C(F)(F)F)c1C2c1cc(F)ccc1C(F)(F)F (centres unmarked) [Compound 64] | –
276X | – | < 0.1 µM | – | – | – | – | – | CC1(C)CC(=O)C2=C(C1)Nc1n[nH]c(C(F)(F)F)c1C2c1cccc(F)c1C(F)(F)F (centres unmarked) [Compound 63] | –
– | – | < 0.1 µM | – | – | – | – | – | CC1(C)CC(=O)C2=C(C1)Nc1n[nH]c(C(F)(F)F)c1C2c1ccccc1F (centres unmarked) [Compound 58] | –
61X | 0.101 to 1 µM | – | < 0.1 µM | 0.101 to 1 µM | – | 0.101 to 1 µM | 1 to 5 µM | Cc1[nH]nc2c1C(c1cccc(F)c1)C1=C(CC(C)(C)CC1=O)N2 (centres unmarked) [Compound 11, 4-(3-fluorophenyl)-3,7,7-trimethyl-6,7,8,9-tetrahydro-1H-pyrazolo[3,4-b]quinolin-5(4H)-one] | –
6X | 0.101 to 1 µM | < 0.1 µM | < 0.1 µM | – | – | – | – | Cc1[nH]nc2c1C(c1ccccc1Cl)C1=C(CC(C)(C)CC1=O)N2 (centres unmarked) [Compound 13, 4-(2-chlorophenyl)-3,7,7-trimethyl-6,7,8,9-tetrahydro-2H-pyrazolo[3,4-b]quinolin-5(4H)-one] | –
7X | 1 to 5 µM | – | – | 5 to 30 µM | 0.101 to 1 µM | 0.101 to 1 µM | 5 to 30 µM | Cc1[nH]nc2c1C(c1ccc(F)cc1Cl)C1=C(CC(C)(C)CC1=O)N2 (centres unmarked) [Compound 35, 4-(2-chloro-4-fluorophenyl)-3,7,7-trimethyl-6,7,8,9-tetrahydro-1H-pyrazolo[3,4-b]quinolin-5(4H)-one] | –
12X | < 0.1 µM | < 0.1 µM | < 0.1 µM | – | – | – | – | Cc1[nH]nc2c1[C@H](c1ccccc1C(F)(F)F)C1=C(CC(C)(C)CC1=O)N2 (racemic) [Compound 28, 3,7,7-trimethyl-4-(2-(trifluoromethyl)phenyl)-6,7,8,9-tetrahydro-2H-pyrazolo[3,4-b]quinolin-5(4H)-one] | –
